The record followed here is paper PMC12696090, “Enzyme engineering of cytochrome P450 RosC provides mechanistic insights into factors controlling iterative oxidation” (Applied Microbiology and Biotechnology, 2025).

Assay [1] has as its target T1, RosC lacking the N-terminal 21 residues (Micromonospora rosaria, UniProt I7HHD0).
T1 construct: N-terminal 21 residues deleted, His-tag cut with thrombin, expressed in E. coli BL21(DE3); crystallization construct
The assay can be described thus: X-ray crystal structure. The conditions noted are these: 2.3 Å; active site, C-20 oriented toward heme iron. In kind it is binding.

Assay [2] addresses T2, NHis-RosC (Micromonospora rosaria, UniProt I7HHD0).
T2 construct: full-length, N-terminal His-tag kept (pET28b), expressed in E. coli BL21(DE3)
Briefly: spectral substrate-binding assay (difference spectra). The settings on record: 50 mM Tris-HCl pH 7.5, 20% glycerol, room temperature, 1 μM enzyme; Type II spectral change.

Assay [3] deals with T3, NHis-RosC (Micromonospora rosaria, UniProt I7HHD0, P107S/L176Q).
T3 construct: full-length, N-terminal His-tag kept (pET28b), expressed in E. coli BL21(DE3)
The assay is described as above. The settings on record: 50 mM Tris-HCl pH 7.5, 20% glycerol, room temperature, 1 μM enzyme; Type II spectral change.

For `CC[C@H]1OC(=O)C[C@@H](O)[C@H](C)[C@@H](O[C@@H]2O[C@H](C)C[C@H](N(C)C)[C@H]2O)[C@@H](CCO)C[C@@H](C)C(=O)/C=C/[C@]2(C)O[C@H]2[C@@H]1C` [RS-A], in assay [1], the X-ray crystal structure entry was “crystal structures of the RosC in complex with RS-A and RS”.
One may read the Kd as the free concentration of one partner at which half of the binding sites on the other are occupied at equilibrium, for simple one-to-one binding. With `CC[C@H]1C[C@@H](C)C(=O)/C=C/[C@]2(C)O[C@H]2[C@H](C)[C@@H](CC)OC(=O)C[C@@H](O)[C@H](C)[C@H]1O[C@@H]1O[C@H](C)C[C@H](N(C)C)[C@H]1O` [RS-B], the Kd at NHis-RosC [2] was found to be 1400 ± 300 nM; at NHis-RosC [3] it was 1000 ± 200 nM. In addition, the X-ray crystal structure entry in assay [1] is listed as “The crystal structure of RosC bound to RS-B”.
For `CC[C@H]1OC(=O)C[C@@H](O)[C@H](C)[C@@H](O[C@@H]2O[C@H](C)C[C@H](N(C)C)[C@H]2O)[C@@H](CC=O)C[C@@H](C)C(=O)/C=C/[C@]2(C)O[C@H]2[C@@H]1C` [RS], in assay [1], the X-ray crystal structure entry is “crystal structures of the RosC in complex with RS-A and RS”.
